Laboratory results from PMC10290372, “Synthesis and tyrosinase inhibitory activities of novel isopropylquinazolinones” (BMC Chemistry, 2023).
“Also recorded” adds a separate entry of the source. Read-outs that look alike come from different tables or passages of the source.

Assays:
[1] = DPPH radical scavenging assay (antioxidant activity); conditions: for % Inhibition at 100 µM: 100 µM compound, mean ± S.E of three independent experiments; for IC50: NA means not active, read-out: IC50 (µM) ± RSD; for antioxidant capacity: result in words
Method: In vitro antioxidant activities of the synthesized compounds were determined quantitatively using DPPH radical scavenging assay. DPPH is a stable free radical at room temperature and accepts an electron or hydrogen radical from an antioxidant to become a stable diamagnetic molecule. […] Similar to previous studies, halogens especially fluorine, increases antioxidant activity.
The DPPH antioxidant potencies of all derivatives were performed according to previously published articles.

mushroom tyrosinase = biological target: T1, mushroom tyrosinase (Agaricus bisporus, UniProt C7FF04); assay: Screening of mushroom tyrosinase inhibitory activity (oxidation of L-dopa); format: biochemical; conditions: L-dopa substrate, mean ± S.E; for inhibition at 50 µM: 50 µM compound
T1 construct: purchased Sigma-Aldrich, St Louis, MO, USA
T1 sequence (C7FF04 1-392 limits assumed): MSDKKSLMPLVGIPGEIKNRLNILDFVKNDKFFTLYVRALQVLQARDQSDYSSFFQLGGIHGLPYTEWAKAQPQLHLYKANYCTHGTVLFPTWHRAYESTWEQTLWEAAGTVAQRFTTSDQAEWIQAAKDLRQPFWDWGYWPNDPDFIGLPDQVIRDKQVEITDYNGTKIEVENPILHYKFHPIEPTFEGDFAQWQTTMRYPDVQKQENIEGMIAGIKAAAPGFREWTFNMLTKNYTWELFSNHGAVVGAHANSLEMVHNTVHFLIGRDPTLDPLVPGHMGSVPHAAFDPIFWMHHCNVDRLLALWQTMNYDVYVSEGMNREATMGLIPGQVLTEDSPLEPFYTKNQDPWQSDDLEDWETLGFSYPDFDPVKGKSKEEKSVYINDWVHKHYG
Method: All newly synthesized compounds (9a–q) were examined for their inhibitory potentials against the tyrosinase enzyme and the results were presented in Table 1 and the structure–activity relationships (SARs) were constructed. […].
Tyrosinase inhibitory activity was determined based on the previously described procedure with a slight modification. In brief, the test reaction mixture comprised 10 µL of each derivative, and 10 µL of mushroom tyrosinase (500 units; Sigma-Aldrich, St Louis, MO, USA) in 160 potassium phosphate buffer (pH = 6.8). The reaction mixture was incubated at 37 °C for 20 min and then 20 µL of L-Dopa (0.5 mmol/L) was added to each well, and the absorption was measured at 475 nm. The absorbance of the same mixture without tyrosinase was used as the control. Kojic acid was used as a positive control. The optical density of the inhibition in the control was considered to represent 100%. The data are expressed as mean percentages and the results were repeated in triplicate.

tyrosinase [2] = conditions: cited from earlier work; for IC50: tyrosinase
tyrosinase [3] = biological target: tyrosinase (Agaricus bisporus, UniProt C7FF04); assay: Enzyme kinetic studies of tyrosinase inhibition (Lineweaver-Burk and secondary plots); format: biochemical, mushroom
tyrosinase (Agaricus bisporus, UniProt C7FF04), sequence (C7FF04 2-392): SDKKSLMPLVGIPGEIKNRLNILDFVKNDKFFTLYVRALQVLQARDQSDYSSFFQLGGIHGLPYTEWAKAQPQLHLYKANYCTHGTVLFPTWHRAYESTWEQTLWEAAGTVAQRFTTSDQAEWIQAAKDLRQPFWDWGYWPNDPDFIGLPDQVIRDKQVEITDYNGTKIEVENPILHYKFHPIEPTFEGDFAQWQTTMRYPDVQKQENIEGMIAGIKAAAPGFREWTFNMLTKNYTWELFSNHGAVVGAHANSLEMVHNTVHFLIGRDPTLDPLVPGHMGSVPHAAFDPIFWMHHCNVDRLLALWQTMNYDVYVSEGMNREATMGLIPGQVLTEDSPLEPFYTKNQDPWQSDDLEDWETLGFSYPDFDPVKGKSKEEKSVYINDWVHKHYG
Method: Fig. 2 Kinetics of tyrosinase inhibition by 9q. a The Lineweaver–Burk plot in the absence and presence of different concentrations of 9q; b The secondary plot of slopes of the lines vs various concentrations of 9q; c The secondary plot of 1/Vmax vs various concentrations of 9q
A Lineweaver–Burk plot was generated to identify the type of inhibition and the Michaelis–Menten constant (Km) value was determined from the plot between the reciprocal of the substrate concentration (1/[S]) and reciprocal of enzyme rate (1/V) over various inhibitor concentrations.

B16F10 cell line [4] = tested on: B16F10 cell line; design: method as in PMID 33640246; conditions: cited from earlier work
B16F10 cell line [5] = tested on: B16F10 cell line; design: method as in PMID 33640246; conditions: cited from earlier work; remark: listed apart in the source

| Compound | % Inhibition at 100 µM [1] [%] | melting point [°C] | inhibition at 50 µM (mushroom tyrosinase) [%] | also measured |
| --- | --- | --- | --- | --- |
| Cc1ccc(NC(=O)CSc2nc3ccccc3c(=O)n2C(C)C)cc1 [Compound 9h, 2-((3-isopropyl-4-oxo-3,4-dihydroquinazolin-2-yl)thio)-N-(p-tolyl)acetamide] | 29.41 ± 1.76 | 199 to 201 | 26.7 ± 6.42 |  |
| CC(C)n1c(SCC(=O)Nc2ccc3ccccc3c2)nc2ccccc2c1=O [Compound 9o, 2-((3-isopropyl-4-oxo-3,4-dihydroquinazolin-2-yl)thio)-N-(naphthalen-2-yl)acetamide] | 68.44 ± 4.84 | 217 to 219 | 35.2 ± 3.88 | IC50 [1]: 38.8 µM |
| O=c1c(O)c(-c2ccc(O)c(O)c2)oc2cc(O)cc(O)c12 [Quercetin, reference compound] |  |  |  | IC50 [1]: 18.6 µM |
| CC(C)=CCC/C(C)=C/c1nc2ccccc2c(=O)[nH]1 [D] |  |  |  | type of inhibition (tyrosinase [2]): mix type inhibition pattern; IC50 (tyrosinase [2]): 103 ± 2 µM |
| CC(C)n1c(SCC(=O)Nc2cccc(Cl)c2)nc2ccccc2c1=O [Compound 9c, N-(3-chlorophenyl)-2-((3-isopropyl-4-oxo-3,4-dihydroquinazolin-2-yl)thio)acetamide] | 18.71 ± 5.39 | 203 to 205 | 27.8 ± 1.19 |  |
| CC(C)n1c(SCC(=O)Nc2ccc(Cl)cc2)nc2ccccc2c1=O [Compound 9d, N-(4-chlorophenyl)-2-((3-isopropyl-4-oxo-3,4-dihydroquinazolin-2-yl)thio)acetamide] | 42.78 ± 4.86 | 211 to 213 | 26.9 ± 4.67 |  |
| CC(C)N1C(=O)c2ccccc2NC1SCc1ccccc1 (stereo not drawn) [F] |  |  |  | IC50 (tyrosinase [2]): 71 ± 3.37 µM |
| CC(C)n1c(=S)[nH]c2ccccc2c1=O [E] |  |  |  | IC50 (tyrosinase [2]): 15.5 ± 1.19 µM |
| CC(C)n1c(SCC(=O)Nc2ccc(O)cc2)nc2ccccc2c1=O [Compound 9j, N-(4-hydroxyphenyl)-2-((3-isopropyl-4-oxo-3,4-dihydroquinazolin-2-yl)thio)acetamide] | 40.83 ± 4.53 | 193 to 195 | 35.5 ± 4.91 |  |
| CC(C)n1c(SCC(=O)Nc2ccc([N+](=O)[O-])cc2)nc2ccccc2c1=O [Compound 9f, 2-((3-isopropyl-4-oxo-3,4-dihydroquinazolin-2-yl)thio)-N-(4-nitrophenyl)acetamide] | 4.87 ± 1.65 | 216 to 218 | 32.7 ± 5.67 |  |
| CC(C)n1c(SCC(=O)Nc2ccccc2)nc2ccccc2c1=O [Compound 9a, 2-((3-Isopropyl-4-oxo-3,4-dihydroquinazolin-2-yl)thio)-N-phenylacetamide] | 2.941 ± 1.76 | 190 to 192 | 21.6 ± 3.79 | antioxidant capacity [1]: no antioxidant capacity |
| CC(C)n1c(SCC(=O)Nc2ccccc2Cl)nc2ccccc2c1=O [Compound 9b, N-(2-chlorophenyl)-2-((3-isopropyl-4-oxo-3,4-dihydroquinazolin-2-yl)thio)acetamide] | 26.47 ± 2.48 | 207 to 209 | 38 ± 4.68 |  |
| COc1ccc(NC(=O)CSc2nc3ccccc3c(=O)n2C(C)C)cc1 [Compound 9i, 2-((3-isopropyl-4-oxo-3,4-dihydroquinazolin-2-yl)thio)-N-(4-methoxyphenyl)acetamide] | 20.05 ± 3.47 | 205 to 207 | 25.4 ± 3.13 |  |
| O=c1[nH]c(-c2ccc(F)cc2)nc2ccccc12 [Compound A, 2–4-fluorophenyl-quinazolin-4(3H)-one] |  |  |  | type of inhibition (tyrosinase [2]; kinetic studies): reversible and mixed-type inhibitor; IC50 (tyrosinase [2]; diphenolase activity): 120 ± 2 µM |
| CCc1ccc(NC(=O)CSc2nc3ccccc3c(=O)n2C(C)C)cc1 [Compound 9k, N-(4-ethylphenyl)-2-((3-isopropyl-4-oxo-3,4-dihydroquinazolin-2-yl)thio)acetamide] | 10.16 ± 4.27 | 195 to 197 | 20.4 ± 4.19 |  |
| Cc1cccc(C)c1NC(=O)CSc1nc2ccccc2c(=O)n1C(C)C [Compound 9n, N-(2,6-dimethylphenyl)-2-((3-isopropyl-4-oxo-3,4-dihydroquinazolin-2-yl)thio)acetamide] | 44.38 ± 5.03 | 215 to 217 | 16.3 ± 6.57 |  |
| CC(C)n1c(SCC(=O)Nc2ccc(Br)cc2)nc2ccccc2c1=O [Compound 9e, N-(4-bromophenyl)-2-((3-isopropyl-4-oxo-3,4-dihydroquinazolin-2-yl)thio)acetamide] | 41.44 ± 3.85 | 203 to 205 | 24.8 ± 3.12 |  |
| CC(C)n1c(SCC(=O)NCc2ccc(F)cc2)nc2ccccc2c1=O [Compound 9q, N-(4-fluorobenzyl)-2-((3-isopropyl-4-oxo-3,4-dihydroquinazolin-2-yl)thio)acetamide] | 60.33 ± 5.53 |  | 54.5 ± 3.94 | IC50 [1]: 40.7 µM; type of inhibition (tyrosinase [3]; Lineweaver-Burk plot, L-Dopa substrate, 9q at 10-50 µM): mix-type inhibition; also recorded: mix-type inhibitor; also recorded: mixed mode of inhibition; inhibition constant with the enzyme-substrate complex (KIS) (tyrosinase [3]; secondary plot of 1/Vmax vs inhibitor concentration): 87.32 µM; IC50 (mushroom tyrosinase; NA means not active): 34.7 ± 3.68 µM |
| Cc1ccc(NC(=O)CSc2nc3ccccc3c(=O)n2C(C)C)c(C)c1 [Compound 9m, N-(2,4-dimethylphenyl)-2-((3-isopropyl-4-oxo-3,4-dihydroquinazolin-2-yl)thio)acetamide] | 21.12 ± 2.99 | 222 to 225 | 27.3 ± 3.43 |  |
| CC(C)n1c(SCC(=O)NCc2ccccc2)nc2ccccc2c1=O [Compound 9p, N-benzyl-2-((3-isopropyl-4-oxo-3,4-dihydroquinazolin-2-yl)thio)acetamide] | 4.47 ± 2.35 | 194 to 196 | 29.1 ± 5.24 | antioxidant capacity [1]: no antioxidant capacity |
| Cc1ccccc1NC(=O)CSc1nc2ccccc2c(=O)n1C(C)C [Compound 9g, 2-((3-isopropyl-4-oxo-3,4-dihydroquinazolin-2-yl)thio)-N-(o-tolyl)acetamide] |  | 196 to 198 | 34.6 ± 4.67 |  |
| O=c1cc(CSc2nc3ccccc3c(=O)n2Cc2ccccn2)occ1O [C] |  |  |  | IC50 (tyrosinase [2]): 0.46 ± 0.9 µM; toxicity (B16F10 cell line [4]): limited toxicity; melanin content (B16F10 cell line [5]): reduced the melanin content |
| Cc1cccc(NC(=O)CSc2nc3ccccc3c(=O)n2C(C)C)c1C [Compound 9l, N-(2,3-dimethylphenyl)-2-((3-isopropyl-4-oxo-3,4-dihydroquinazolin-2-yl)thio)acetamide] | 5.08 ± 2.14 | 217 to 219 | 18.2 ± 5.52 |  |
